# In the supplement of paper PMC10307832:
# How the values were obtained:
# Assay in all cases: relative viability (nuclei count vs DMSO), 5 days (fraction); higher = more cells survive
# [1] = compound: CN(c1ncccc1CNc1nc(Nc2ccc3c(c2)CC(=O)N3)ncc1C(F)(F)F)S(C)(=O)=O + Cc1cc(Nc2cc(N3CCN(C)CC3)nc(Sc3ccc(NC(=O)C4CC4)cc3)n2)n[nH]1 [Tozasertib] (partner 0.1 µM)
# Summary of the method: (§1)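 Relative viability is defined as nuclei in treated wells over nuclei in vehicle wells. Duplicate plates were run and medians reported. Lung cancer cell lines in 1536-well plates were dosed by pin tool one day after seeding, with one drug or with a fixed anchor-drug dose plus five library-drug doses (not always all listed) in √10 steps, and nuclei were counted after 5 days.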
# [2] = compound: CN(c1ncccc1CNc1nc(Nc2ccc3c(c2)CC(=O)N3)ncc1C(F)(F)F)S(C)(=O)=O + CCNC(=O)c1noc(-c2cc(C(C)C)c(O)cc2O)c1-c1ccc(CN2CCOCC2)cc1 [Luminespib] (partner 0.01 µM)
# Summary of the method: as §1
# [3] = compound: CN(c1ncccc1CNc1nc(Nc2ccc3c(c2)CC(=O)N3)ncc1C(F)(F)F)S(C)(=O)=O + Cc1nc(Nc2ncc(C(=O)Nc3c(C)cccc3Cl)s2)cc(N2CCN(CCO)CC2)n1 [Dasatinib] (partner 0.075 µM)
# Summary of the method: as §1
# [4] = compound: CN(c1ncccc1CNc1nc(Nc2ccc3c(c2)CC(=O)N3)ncc1C(F)(F)F)S(C)(=O)=O + Cc1nc(NC(=O)N2CCC[C@H]2C(N)=O)sc1-c1ccnc(C(C)(C)C(F)(F)F)c1 [Alpelisib] (partner 2 µM)
# Summary of the method: as §1
Cell Line,relative viability ([1]; first compound 0.01 µM),relative viability ([1]; first compound 0.03162 µM),relative viability ([1]; first compound 0.1 µM),relative viability ([1]; first compound 0.3162 µM),relative viability ([1]; first compound 1 µM),relative viability ([2]; first compound 0.01 µM),relative viability ([2]; first compound 0.03162 µM),relative viability ([2]; first compound 0.1 µM),relative viability ([2]; first compound 0.3162 µM),relative viability ([2]; first compound 1 µM),relative viability ([3]; first compound 0.01 µM),relative viability ([3]; first compound 0.03162 µM),relative viability ([3]; first compound 0.1 µM),relative viability ([3]; first compound 0.3162 µM),relative viability ([3]; first compound 1 µM),relative viability ([4]; first compound 0.01 µM),relative viability ([4]; first compound 0.03162 µM),relative viability ([4]; first compound 0.1 µM),relative viability ([4]; first compound 0.3162 µM),relative viability ([4]; first compound 1 µM)
NCI-H1755,0.519,0.533,0.593,0.472,0.61,0.531,0.41,0.479,0.389,0.419,0.414,0.412,0.329,0.365,0.325,0.904,0.946,0.94,0.82,0.848
NCI-H1793,0.32,0.379,0.332,0.222,0.23,0.218,0.181,0.212,0.175,0.138,0.375,0.336,0.409,0.311,0.353,0.77,0.765,0.611,0.674,0.659
NCI-H1915,0.488,0.488,0.462,0.424,0.373,0.821,0.636,0.711,0.729,0.729,0.296,0.269,0.292,0.295,0.309,1.07,1.1,1.03,1.05,1.02
NCI-H1944,0.238,0.279,0.247,0.261,0.243,0.779,0.926,0.818,0.732,0.828,0.232,0.231,0.202,0.252,0.276,0.742,0.955,0.805,0.86,0.918
NCI-H1975,0.737,0.793,0.784,0.665,0.46,0.243,0.259,0.239,0.389,0.194,0.359,0.272,0.28,0.27,0.262,0.66,0.592,0.611,0.67,0.59
NCI-H1993,0.528,0.615,0.659,0.595,0.551,0.859,0.849,0.752,0.755,0.65,0.601,0.48,0.506,0.78,0.593,0.739,0.632,0.612,0.663,0.674
NCI-H2009,0.631,0.696,0.744,0.693,0.625,1.04,1.02,1.03,0.683,0.948,0.23,0.217,0.244,0.229,0.238,1.12,1.21,1.17,1.17,1.1
NCI-H2023,0.377,0.403,0.368,0.299,0.229,0.696,0.79,0.597,0.643,0.611,0.476,0.588,0.428,0.432,0.448,0.521,0.677,0.668,0.59,0.507
NCI-H2085,0.797,0.721,0.772,0.697,0.584,0.394,0.681,0.457,0.418,0.36,0.215,0.232,0.178,0.183,0.152,0.903,0.904,0.882,0.922,0.812
NCI-H2087,0.224,0.238,0.236,0.293,0.207,0.164,0.239,0.162,0.185,0.185,0.828,0.795,0.61,0.542,0.451,1.14,1.18,1.11,1.12,1.19
NCI-H2126,0.793,0.91,0.85,0.787,0.714,0.905,0.9,0.778,0.941,0.761,0.55,0.559,0.469,0.381,0.347,0.717,0.739,0.742,0.743,0.641
NCI-H2170,0.741,0.691,0.679,0.649,0.716,0.722,0.799,0.707,0.749,0.424,0.455,0.526,0.461,0.504,0.404,0.762,0.874,0.862,–,0.786
NCI-H2228,0.271,0.243,0.249,0.239,0.207,0.144,0.23,0.0915,0.182,0.103,0.549,0.433,0.42,0.404,0.339,0.634,0.766,0.857,0.633,0.701
NCI-H2347,0.544,0.626,0.672,0.44,0.478,0.643,0.557,0.243,0.592,0.389,0.283,0.313,0.331,0.297,0.283,1.06,0.973,0.893,0.972,0.817
NCI-H2405,0.696,0.719,0.715,0.534,0.499,0.791,0.723,0.622,0.464,0.52,0.229,0.197,0.184,0.22,0.218,0.837,0.757,0.719,0.72,0.727
NCI-H3122,0.61,0.383,0.403,0.402,0.341,0.0983,0.101,0.0795,0.0863,0.0795,0.802,1.02,0.787,0.746,0.764,0.748,0.982,0.684,0.822,0.728
